Results taken from PMC10545732, “Structure-based drug discovery of a corticotropin-releasing hormone receptor 1 antagonist using an X-ray free-electron laser” (Experimental & Molecular Medicine, 2023).
“Also recorded” adds a separate entry of the source.

Key:
[1] = PK studies in rats; format: in vivo, SD rats; details: for AUC(0-t) / half-life / Cmax / Tmax / bioavailability: male, Sprague-Dawley, rat, plasma, SD rats, n = 3
Procedure: CRF1R antagonist PKs were studied in naïve male SD rats following a single i.v. bolus injection or p.o. gavage. The i.v. injections used Antalarmin, BMK-C203, or BMK-C205 at doses of 5 mg/kg and BMK-I-152 at a dose of 1 mg/kg. The antagonist’s doses in the p.o. injection was 10 mg/kg. Three male SD rats weighing between 220 and 260 g were used to evaluate CRF1R antagonist PKs. The vehicle used for all dose groups was […]: TPGS: PEG400 (70%:20%:10%). Blood samples were collected from all treatment groups at 0 h (predose), 0.083, 0.25, 0.5, 1, 2, 4, 6, 8, and 24 h after dosing. Antalarmin, BMK-I-152, BMK-C203, and BMK-C205 concentrations in the plasma samples were determined via LC‒MS/MS (LLOQ was 1 ng/mL for CRF1R antagonists). PK parameter estimates were determined using the serial time-course profiles for plasma concentrations of three male rats per group via noncompartmental analysis using commercially available software (Phoenix WinNonlin, version 8.1, Pharsight Corporation, Mountain View, CA).

[2] = Microsomal stability assay, rat liver microsomes; format: in vitro ADME; details: 1 μM, n = 3
Procedure: The incubation mixtures consisted of 0.5 mg/mL human (Corning, #452117) and rat liver microsomes (Corning, #452701), 0.1 M phosphate buffer (pH 7.4), NADPH regeneration system, and substrates (CRF1R antagonist compounds, 1 µM) in a total volume of 100 μL. […] LC‒MS/MS was performed on a TSQ Vantage (Thermo, USA) coupled with a Nexera XR LC system (Shimadzu, Japan)[32]. The separation was performed on a Kinetex C18 column (2.1 × 100 mm, 2.6 µm, Phenomenex, USA) using a mobile phase of 0.1% formic acid and acetonitrile containing 0.1% formic acid. A gradient program was used for elution at a flow rate of 0.3 mL/min. The data were acquired using multiple-reaction monitoring (MRM) in positive mode. Detection of the ions was performed by monitoring the m/z transition of 494.1 → 336.1 for BMK-I-152, 598.1 → 233.2 for BMK-C203, and 488.1 → 434.1 for BMK-C205.

[3] = system: C57BL/6J mice; experiment: Open field test (OFT); format: in vivo; details: 30 mg/kg orally for 3 days, 1 h open field
Procedure: (§1) C57BL/6J mice (male, 9–10 weeks old) were used for the behavioral tests. All mice were maintained under a 12:12-h light–dark cycle (lights on at 7:00 A.M.) with access to food and water ad libitum. Animal care and handling were performed according to guidelines by the Institutional Animal Care and Use Committee of Yonsei University (Seoul, Korea). Antalarmin, BMK-C203, and BMK-C205 were dissolved in peceol: TPGS: PEG400 (vehicle) (70%:20%:10%, respectively) and administered orally at a dose of 30 mg/kg for 3 days at 24-h intervals. All behavioral tests were conducted 2 h after the third drug was administered during light periods of the circadian cycle. TSTs were performed to verify the effect of CRF1R antagonists on depressive-like behavior. Each mouse was suspended by its tail on a bar 30 cm above the ground for 6 min using adhesive tape. Their movements were recorded by a camera and analyzed using the same parameters via EthoVision XT 8.5 software (Noldus Technologies). Immobility times during the last 4 min of the task were measured. Each mouse was placed in an open field (40 cm × 40 cm × 40 cm chamber) for 1 h to conduct an open field test (OFT) and test locomotion. Their locomotion was recorded and analyzed using EthoVision XT 8.5.

[4] = system: ACTH serum levels; experiment: Serum ACTH level after TST (ELISA); format: in vivo, mice; details: 30 mg/kg orally for 3 days, immediately after TST
Procedure: The mice were anesthetized via intraperitoneal injections of 2,2,2-tribromoethanol (300 mg/kg, Sigma-Aldrich) immediately after the TST and before blood from the heart was sampled. Blood samples were collected in plastic tubes and incubated at room temperature for at least 2 h. The sera were extracted after centrifugation at 13,000×g for 10 min at 4 °C. CORT levels were determined via LC‒MS analysis. Serum (10 µL) was mixed with 20 μL of an internal standard solution (d4-cortisol) to prepare the samples. Subsequently, 100 μL of acetonitrile was added, and the mixture was centrifuged at 16,000×g for 10 min for protein precipitation. The supernatants (60 μL) were transferred into an autosampler vial, and 30 μL of water was added for efficient separation via high-performance liquid chromatography (HPLC). LC‒MS was performed with a triple quadrupole mass spectrometer coupled with HPLC using a C18 reversed-phase column. CORT levels were determined using a calibration curve constructed using CORT-spiked mouse serum. Serum samples (20 μL) were analyzed using a commercially available ELISA kit for ACTH (ab263880, Abcam) to measure ACTH serum levels.

[5] = Microsomal stability assay, human liver microsomes; format: in vitro ADME; details: for Liver microsomal stability, Human (percentage remaining after 30 min): 1 μM, n = 3; for metabolic stability improved by: human and rat liver microsomes, 30 min
Procedure: LC‒MS/MS was performed on a TSQ Vantage (Thermo, USA) coupled with a Nexera XR LC system (Shimadzu, Japan)[32]. The separation was performed on a Kinetex C18 column (2.1 × 100 mm, 2.6 µm, Phenomenex, USA) using a mobile phase of 0.1% formic acid and acetonitrile containing 0.1% formic acid. A gradient program was used for elution at a flow rate of 0.3 mL/min. The data were acquired using multiple-reaction monitoring (MRM) in positive mode.

[6] = system: C57BL/6J mice; experiment: Tail suspension test (TST); format: in vivo; details: 30 mg/kg orally for 3 days, test 2 h after third dose, last 4 min of 6 min
Procedure: as §1

Structure (SMILES) | AUC(0-t) ([1]; iv, I.V, 5 mg/kg) | half-life ([1]; iv, I.V, 5 mg/kg) | AUC(0-t) ([1]; po, P.O, 10 mg/kg) | Cmax ([1]; po, P.O, 10 mg/kg) | Tmax ([1]; po, P.O, 10 mg/kg) | bioavailability ([1]; po, P.O, 10 mg/kg) | half-life ([1]; po, P.O, 10 mg/kg) | Liver microsomal stability, Rat (percentage remaining after 30 min) [2] | OFT locomotion / overall moving distance [3] | serum ACTH level versus vehicle [4] | Liver microsomal stability, Human (percentage remaining after 30 min) [5] | metabolic stability improved by [5] | TST immobility time versus vehicle [6] | serum concentration relative to BMK-C203 ([1]; 2 h after oral administration in the PK test)
COc1cc(Br)cc(OC)c1-c1c(C)nn2c(N(CCCC(F)(F)F)CCCC(F)(F)F)nc(C)nc12 [BMK-C203] | 20600 ng·h/mL | 4.76 h | 16100 ng·h/mL | 1370 ng/mL | 4.67 h | 39.5% | 4.22 h | 97.1 ± 8.81% | did not differ among groups | decreased; also recorded: lower than those in the vehicle group; also recorded: significantly affected | 88.3 ± 16.71% | more than 90% | did not significantly affect | –
CCCCN(CC1CC1)c1nc(C)nc2c(-c3c(OC)cc(Br)cc3OC)c(C)nn12 [BMK-C205] | 22900 ng·h/mL | 6.5 h | 9880 ng·h/mL | 2400 ng/mL | 2 h | 21.6% | 3.87 h | 89.4 ± 2.07% | did not differ among groups; also recorded: no differences | decreased; also recorded: lower than those in the vehicle group | 88.0 ± 4.50% | more than 90% | significantly decreased; also recorded: more mobile than the vehicle group | twice as high
